Reference: publication PMC9147192, “Small Molecule Arranged Thermal Proximity Coaggregation (smarTPCA)—A Novel Approach to Characterize Protein–Protein Interactions in Living Cells by Similar Isothermal Dose–Responses” (International Journal of Molecular Sciences, 2022)

Columns and labels:
Assay in all cases: TPP-CCR in living HL-60 cells
Assay type in all cases: cell-based
SMIM12 = target: T1, SMIM12 (Homo sapiens, UniProt Q96EX1)
T1 construct: endogenous in cells; host or cells: HL-60 (ATCC CCL-240)
T1 sequence (Q96EX1 1-92): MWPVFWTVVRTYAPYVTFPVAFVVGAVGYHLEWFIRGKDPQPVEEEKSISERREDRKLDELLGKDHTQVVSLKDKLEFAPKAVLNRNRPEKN
Source text: (§1) Therefore, we performed TPP with compound concentration range (TPP-CCR) experiments according to published procedures. In brief, after preparing tryptic peptides from the non-denatured protein fractions (used for immunoblotting in the previous sections) applying the SP3 method, the peptides were labeled using TMT10plex, coding for inhibitor concentration, and the samples belonging to a TMT set were combined, offline high-pH fractionated, and analyzed by MS.
(§2) HL-60 cells were expanded as described above for CETSA and TPP-TR to 1.25 million cells per milliliter. […] A number of 2.5 million cells in 2 mL of medium were added to each tube and incubated (1 h, 37 °C). After centrifugation (300 rcf, 3 min, r.t.) and removing all of the supernating culture medium, the cells were washed once with 2 mL and once with 0.5 mL PBS (r.t.) by gently resuspending the cells, followed by centrifugation (300 rcf, 3 min, r.t.) and the complete removal of the supernatants.
(§3) After transferring the cells from the 2 mL Eppendorf tubes into correspondingly labeled PCR tubes (tube strips) using 100 µL of ice-cold PBS supplemented with protease inhibitors for resuspending the cells, the samples were further processed as described above for CETSA and TPP-TR, however, by applying a single treatment temperature of 51 °C.
(§4) For each sample set comprising ten compound concentration range samples, a same volume of the cell extracts containing the fraction of soluble, non-denatured proteins, corresponding to an average of 5 µg total protein, was used for further analysis. The calculated volume was respectively transferred into PCR tubes of a tube strip and supplemented with SDS sample buffer without DTT and bromophenol blue (final concentrations: 7.5% glycerol, 3% SDS, 37.5 mM Tris/HCl pH 7.0) and ddH2O to a final volume of 10 µL, respectively. Reduction and alkylation were performed by addition of 2.5 µL 100 mM dithiothreitol (DTT; incubation: 20 min, 56 °C, 1000 rpm in an Eppendorf ThermoMixer C, covering the tubes with aluminum foil to minimize condensation in the lids) and 3.33 µL 300 mM iodoacetamide (IAA; incubation: 15 min, r.t., in the dark without shaking), as well as 2.5 µL 100 mM DTT (incubation: 15 min, r.t., without shaking; quenching of excess of IAA). […] The beads were collected and washed (3× 200 µL 80% ethanol p.a. in HPLC-MS grade water, 1 × 200 µL acetonitrile (ACN; HPLC gradient grade)) using a device for handling of magnetic particles [patent US20100200405A1]. The ACN of the last washing step was completely removed by aspiration without letting the beads dry out.
(§5) Tryptic digest was performed on-bead by resuspending (use of an ultrasound bath may be required) the beads in 20 µL 50 mM TEAB in HPLC-MS grade water containing 0.1 µg Trypsin/Lys-C mix and 16.5 h incubation at 37 °C and 1000 rpm (Eppendorf ThermoMixer C, covering the tubes with aluminum foil to minimize condensation in the lids). Tryptic fragmentation of proteins was optimized by addition of another 0.1 µg of Trypsin/Lys-C mix in 2 µL 50 mM TEAB and 4 h incubation at 37 °C and 1000 rpm. After centrifugation for about 1 min in a table top centrifuge and magnetic concentration and retention of the beads at the inner tube wall, the supernatants containing the peptides were transferred into new PCR tubes (of tube strips) and were stored at −80 °C. The beads were discarded.
(§6) Half of the peptide samples (11 µL containing about 2.5 µg peptides) were transferred into new PCR tubes (of tube strips) and allowed to equilibrate to r.t. TMT labeling reagents were reconstituted as described for the TPP-TR samples, and 1 µL each was added to the reconstituted peptides according to the following scheme and homogenized immediately by aspiration and dispensing:
(§7) Peptide separation was performed as described above for the analysis of TPP-TR samples. […]

CHMP4B = target: T2, CHMP4B (Homo sapiens, UniProt Q9H444)
T2 construct: endogenous in cells; host or cells: HL-60 (ATCC CCL-240)
T2 sequence (Q9H444 1-224): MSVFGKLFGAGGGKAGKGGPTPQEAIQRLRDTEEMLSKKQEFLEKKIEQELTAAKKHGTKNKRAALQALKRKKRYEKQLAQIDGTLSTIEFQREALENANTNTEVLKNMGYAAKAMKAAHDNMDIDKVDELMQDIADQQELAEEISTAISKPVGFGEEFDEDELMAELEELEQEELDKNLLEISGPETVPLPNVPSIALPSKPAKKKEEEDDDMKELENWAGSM
Source text: as §1, §2, §3, §4, §5, §6, §7

PDIA6 = target: T3, PDIA6 (Homo sapiens, UniProt Q15084)
T3 construct: endogenous in cells; host or cells: HL-60 (ATCC CCL-240)
T3 sequence (Q15084 20-440): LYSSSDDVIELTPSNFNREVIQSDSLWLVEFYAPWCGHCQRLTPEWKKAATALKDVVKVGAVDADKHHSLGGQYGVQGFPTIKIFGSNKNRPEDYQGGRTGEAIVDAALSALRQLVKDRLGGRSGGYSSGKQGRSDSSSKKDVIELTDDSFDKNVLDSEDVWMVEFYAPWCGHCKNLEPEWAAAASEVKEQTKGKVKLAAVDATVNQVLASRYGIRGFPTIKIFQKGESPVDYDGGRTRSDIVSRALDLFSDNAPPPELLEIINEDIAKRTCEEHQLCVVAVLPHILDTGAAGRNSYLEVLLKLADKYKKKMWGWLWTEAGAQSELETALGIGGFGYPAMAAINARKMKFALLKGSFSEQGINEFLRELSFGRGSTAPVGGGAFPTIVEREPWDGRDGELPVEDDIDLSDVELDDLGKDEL
Source text: as §1, §2, §3, §4, §5, §6, §7

[1] = living HL-60 cells, […] °C, TMT-MS

For `Cc1cnc(Nc2ccc(F)cc2Cl)nc1-c1c[nH]c(C(=O)N[C@H](CO)c2cccc(Cl)c2)c1` [ERK 11e], the Hill slope (SMIM12; TPP-CCR, living cells, SMIM12) was 0.47, the “Hill slope (SMIM12)” value (SMIM12; [1]) was 0.47 and the EC50 (SMIM12; living HL-60 cells, […] °C, TMT-MS, read-out: pEC50 (SMIM12) (converted)) was 427 nM. The Hill slope (CHMP4B; TPP-CCR, living cells, CHMP4B) was 0.21, the “Hill slope (CHMP4B)” value (CHMP4B; [1]) was 0.21 and the EC50 (CHMP4B; living HL-60 cells, […] °C, TMT-MS, read-out: pEC50 (CHMP4B) (converted)) was 41.7 nM. For the same molecule, the Hill slope (PDIA6; TPP-CCR, living cells, PDIA6) was 1.33, the “Hill slope (PDIA6)” value (PDIA6; [1]) was 1.33 and the EC50 (PDIA6; living HL-60 cells, […] °C, TMT-MS, read-out: pEC50 (PDIA6) (converted)) was 3550 nM.
